In patent US6589549B2, “Bioactive agent delivering system comprised of microparticles within a biodegradable to improve release profiles” (Macromed, Incorporated, priority 2000, dated 2003):

Conditions: in the presence of the block copolymer

chemical stability in the aqueous polymer composition relative to aqueous solutions with organic co-solvents: substantially stabilized
Structure (SMILES): CC(=O)O[C@H]1C(=O)[C@@]2(C)[C@H]([C@H](OC(=O)c3ccccc3)[C@]3(O)C[C@H](OC(=O)[C@H](O)[C@@H](NC(=O)c4ccccc4)c4ccccc4)C(C)=C1C3(C)C)[C@]1(OC(C)=O)CO[C@@H]1C[C@@H]2O [paclitaxel]
